# pIC50: −log10 of the molar value.
# Tested on: Salmonella Typhi PhoP-promoter GFP reporter, fluorescence, 4 h
# Test: Inhibition of PhoP regulon, Salmonella typhi GFP reporter cells, confirmation, 4 h (AID 1850)
row,SMILES,pIC50
1,OCCCNc1c2ccccc2nc2ccccc12,3.98
2,O=C(C[n+]1cc(Br)cc2ccccc21)c1ccc(Cl)cc1,4.12
3,C=CCn1c(NS(=O)(=O)c2ccccc2)c(S(=O)(=O)c2ccc(C)cc2)c2nc3ccccc3nc21,4.30
4,CCC(C)(C)c1ccc(OCCCC[n+]2ccccc2)c(C(C)(C)CC)c1,4.72
5,CCn1cc(C(=O)O)c(=O)c2ccc(C)nc21,4.22
6,Cc1ccc2c(c1)sc(-c1ccc(N(C)C)cc1)[n+]2C,4.62
7,CN(O)/C=c1/ccc2c(n1)C(=O)C=CC=2,4.46
8,COc1ccc(OCc2n(CC(=O)OC3CC(C)CCC3C(C)C)c3ccccc3[n+]2C)cc1 (configuration not stated),4.31
9,N=c1n(CCN2CCCCC2)c2ccccc2n1CC(O)c1ccc(Cl)c(Cl)c1 (configuration not stated),4.43
10,Cc1ccc(C)c(N/C(N)=N/c2nc(C)cc(C)n2)c1,3.85
11,Cc1ccc(-c2c[n+](CC(=O)Nc3nc(-c4ccccc4)cs3)c3n2CCC3)cc1,4.66
12,Fc1cccc(Nc2c3c(nc4ccccc24)CCC3)c1,4.26
13,O=C(CSc1ccccn1)N/N=C/c1c[nH]c2ccccc12,3.93
14,COc1ccc(C(=O)N/N=C/c2sc3ccccc3c2O)cc1,4.14
15,C/C(=N/Nc1ccnc2cc(Cl)ccc12)c1ccc(N)cc1,4.52
16,O=C(Cc1ccccc1)N/N=C/c1cc(Br)cc(Cl)c1O,4.49
17,CN1CCN(C(c2cccc(Cl)c2)c2ccccc2Cl)CC1 (configuration not stated),3.99
18,CCCCCCCC(=O)N/N=C/c1ccc([N+](=O)[O-])o1,4.57
19,CCCCn1c(NS(=O)(=O)c2ccc(C)cc2)c(S(=O)(=O)c2ccccc2)c2nc3ccccc3nc21,5.10
20,O=C(c1ccccc1)c1c2c(cc3sc4ccccc4[n+]13)-c1cccc3cccc-2c13,4.45
21,NC[C@@H]1O[C@H](C23CC4CC(CC(C4)C2)C3)Cc2c1ccc(O)c2O,4.30
22,Cc1ccc(C(c2cc(Cl)c3cccnc3c2O)N2CCN(C)CC2)cc1 (configuration not stated),4.43
23,O=S1(=O)Nc2c(ccc3cccnc23)-c2ccccc21,5.66

row,SMILES,pIC50
1,CCn1cc(C(=O)O)c(=O)c2cc(F)c(N3CCN(C(=S)NC(=O)c4cccc(F)c4)CC3)cc21,4.73
2,CCn1nnc(NC(=O)c2ccc([N+](=O)[O-])o2)n1,4.28
3,O=C(NNc1nc2ccc(F)cc2s1)c1cccc(F)c1,4.11
4,COC(=O)N/N=C/c1c[n+]([O-])c2ccccc2[n+]1[O-],4.31
5,Cc1ccc(Nc2cc(C)nn2-c2nc(C)cc(=O)[nH]2)cc1,4.92
6,O=C(Oc1ccccc1)c1cc2ccccc2o1,4.42
7,O=C(N/N=C/c1ccc([N+](=O)[O-])o1)C1CCCC1,4.45
8,CCC(C)NC(=O)c1cn(CC)c2cc(N3CCN(C)CC3)c(F)cc2c1=O (configuration not stated),4.68
9,N/C(=N\OS(=O)(=O)c1ccc(Cl)cc1)c1cccnc1,4.58
10,Oc1c(CN2CCN(c3ccccn3)CC2)cc(Cl)c2cccnc12,4.53
11,Cc1cc(=O)[nH]c(-n2nc(C)cc2C)n1,4.12
12,Nc1nc(Nc2ccccc2)nc2ccccc12,4.46
13,C[n+]1c2n(c3ccccc31)N=C(c1ccc(-c3ccccc3)cc1)CS2,4.61
14,O=c1c2ccccc2[nH]c2ccccc12,4.44
15,COc1cc([N+](=O)[O-])cc(/C=N/NC(=O)c2cccnc2)c1O,4.08
16,CC(=O)Nc1ccc(S(=O)(=O)NNc2cccc(C)c2)cc1,4.41
17,COc1ccc(C(=O)NC(=S)NNC(=O)c2cnccn2)cc1,4.03
18,C#CCOCCOCCOCCNc1nc(N2CCN(C(=O)CCCCCCCCCCNC(=O)[C@H]([C@@H](C)CC)n3cc(CCCCN=C(N)N)nn3)CC2)nc(N2CCN(C(=O)CCCCCCCCCCNC(=O)[C@H](CO)n3cc(CCCCCN)nn3)CC2)n1,4.46
19,O=C(/C=C(\O)c1ccccc1)C(=O)NNC(=O)c1ccccc1,4.62
20,N=c1n(CC(=O)c2ccc(Br)s2)c2ccccc2n1Cc1ccccc1,4.29
21,OCCN1CCN(Cc2cc(Cl)c3cccnc3c2O)CC1,4.12
22,Oc1cc(Cl)ccc1Oc1ccc(Cl)cc1Cl,6.17
23,CC(=O)OC1=C(O)C(=O)c2ccccc2C1=O,3.85

row,SMILES,pIC50
1,C/C(=N\N=C(N)N)c1ccc(Cl)c(Cl)c1,4.11
2,C#CCOCCOCCOCCNc1nc(N2CCN(C(=O)CCCCCCCCCCNC(=O)[C@H](CO)n3cc(CCCCCN)nn3)CC2)nc(N2CCN(C(=O)CCCCCCCCCCNC(=O)[C@H](CCCN=C(N)N)n3cc(C[C@@H](C)CC)nn3)CC2)n1,4.61
3,O=C(Nc1nnc(-c2ccccn2)o1)c1cccc(Cl)c1,3.94
4,CC(C)(C)c1ccc(NC(=O)COC(=O)c2ccc([N+](=O)[O-])s2)cc1,4.66
5,CNCc1c(OCc2ccccc2F)ccc2ccccc12,4.10
6,Cn1ncnc2c(=O)n(C)c(=O)nc1-2,5.89
7,Oc1ccc(/C=N/Nc2nccnc2Cl)c(O)c1,4.15
8,CC1(C)CC(=O)c2c(nc3ccccc3c2N)C1,4.15
9,CN1CCc2nc(SCC(=O)Nc3cccc(F)c3)c(C#N)c(-c3cccs3)c2C1,4.06
10,O=C(N/N=C\C=C\c1ccc([N+](=O)[O-])o1)c1cccs1,4.73
11,CN(C)CCCN1c2ccccc2Sc2ccccc21,3.94
12,Cc1ccc(C)c(NC(=O)CCC(=O)N/N=C/c2cc([N+](=O)[O-])ccc2O)c1,4.22
13,CN(C)CCCN(C(=O)COc1ccccc1)c1nc2ccc(Cl)cc2s1,4.11
14,Cc1cc(N2CCC(C)CC2)nc(NCc2ccccc2)n1,4.40
15,CN(C)CC/C=C1/c2cc(F)ccc2Sc2ccc(Cl)cc21,4.18
16,CN(C)CCCNC(=S)NCC(c1ccc(Cl)cc1Cl)c1c[nH]c2ccccc12 (configuration not stated),4.28
17,COc1ccc(N2CC(C(=O)N/N=C/c3cc([N+](=O)[O-])ccc3O)CC2=O)cc1 (configuration not stated),3.87
18,CCOC(=O)c1ccccc1-n1c(C)cc(C2N=C(N)Nc3nc4ccccc4n32)c1C (configuration not stated),4.44
19,CC1CC(=O)c2c(cc3c(-c4c(O)cc(O)c5c(O)c6c(cc45)OC(C)CC6=O)c(O)cc(O)c3c2O)O1 (configuration not stated),4.56
20,CCc1cccc(NC(=O)CSC2=NS(=O)(=O)c3ccccc32)c1,4.43
21,COc1ccc(Nc2ccnc3ccccc23)cc1,4.28
22,CCn1cc(C(=O)O)c(=O)c2cc(F)c(N3CCN(C(=O)Nc4ccccc4)CC3)cc21,4.63
23,C#CCOCCOCCOCCNc1nc(N2CCN(C(=O)CCCCCCCCCCNC(=O)[C@H](CCCCN)n3cc(C)nn3)CC2)nc(N2CCN(C(=O)CCCCCCCCCCNC(=O)[C@@H]([C@H](C)CC)n3cc(CCCCCN)nn3)CC2)n1,4.48

row,SMILES,pIC50
1,CCCCOc1ccc(Br)cc1CSC(=N)N,4.46
2,CN1CCN(C(c2ccc(C(F)(F)F)cc2)c2ccc3cccnc3c2O)CC1 (configuration not stated),4.70
3,OC(CN1CCCCC1)Cn1c2ccccc2c2cc(Br)ccc21 (configuration not stated),4.16
4,O=C(Nc1nc(-c2ccccn2)cs1)c1ccc(Cl)s1,4.48
5,Clc1ccc2[nH]c3c(c2c1)CCc1cn[nH]c1-3,4.10
6,CCCCCCCCCCOC(=O)Cn1c(COc2ccccc2OC)[n+](C)c2ccccc21,4.99
7,Cc1ccc(Nc2nc(NCCO)c3ccccc3n2)cc1C,4.73
8,O=C(Nc1csc(Cl)c1)c1ccccc1,4.60
9,COC(=O)C(C)NC(=S)N1CCN(c2c(F)cc3c(=O)c(C(=O)O)cn(C4CC4)c3c2OC)CC1C (configuration not stated),4.77
10,O=C(N/N=C/c1cc(Cl)ccc1O)c1ccncc1,4.71
11,Cc1ccc2nc(NCc3ccccc3)[nH]c2c1,4.21
12,Oc1c(Br)cc(Br)cc1C=Nc1cccc2ncccc12,4.43
13,O=C(CCN1CCOCC1)N/N=C/c1cc(Br)cc(Br)c1O,4.51
14,S=C(NCc1ccc(Cl)cc1)Nc1ccncc1,4.72
15,COc1ccc(CNCCc2cccc(F)c2)c2ccccc12,4.13
16,CN(C)CC/C=C1\c2ccccc2Sc2ccc(Cl)cc21,4.14
17,Cc1ccc(-c2[nH]ncc2/C=N/n2c(C)nc3ccccc3c2=O)cc1,3.83
18,O=C(NC(CO)C(O)c1ccc([N+](=O)[O-])cc1)C(Cl)Cl (configuration not stated),5.29
19,CCN(CCC(=O)Nc1ccc(Br)c(C)c1)Cc1ccccc1,4.12
20,c1ccc(Nc2nc(NCC3CCCO3)c3ccccc3n2)cc1 (configuration not stated),5.30
21,Nc1nc(F)nc2c1ncn2[C@@H]1O[C@H](CO)[C@@H](O)[C@H]1O,4.48
22,CO[C@@]1(NC(=O)Cc2cccs2)C(=O)N2C(C(=O)O)=C(COC(N)=O)CS[C@@H]21,5.03
23,Clc1ccc(CN2CCc3c([nH]c4ccccc34)C2)cc1Cl,4.44

row,SMILES,pIC50
1,CN(C)c1ccc(Nc2nc(N)c3ccccc3n2)cc1,4.51
2,c1ccc2c(c1)CCc1ccccc1C2=C1CCNCC1,4.13
3,CCc1ccc(NC(=O)C[n+]2cc(-c3ccc(C)cc3)n3c2CCC3)cc1,4.40
4,CN1CCN(c2c(F)cc3c(=O)c(C(=O)O)cn4c3c2OCN4C)CC1,> 6.64
5,COc1ccccc1Nc1nc(NCc2ccco2)c2ccccc2n1,4.71
6,O=C1C2=C(Nc3ccccc3SC2c2ccco2)c2ccccc21 (configuration not stated),4.91
7,C#CCOCCOCCOCCNc1nc(N2CCN(C(=O)CCCCCCCCCCNC(=O)[C@@H](CCSC)n3cc(CCO)nn3)CC2)nc(N2CCN(C(=O)CCCCCCCCCCNC(=O)[C@H]([C@@H](C)CC)n3cc(CCCCCN)nn3)CC2)n1,3.92
8,CN(C)CCOCCOc1ccc(Cl)c2ccccc12,3.99
9,CCOc1cc(CNC(C)(C)CO)cc(Br)c1OCc1ccc(Cl)cc1Cl,4.36
10,Cc1ccccc1C(=O)N/N=C/c1ccc([N+](=O)[O-])s1,4.45
11,Nc1cccc2c(=O)c3ccccc3[nH]c12,4.67
12,O=C(NC1CCCC1)c1ccc(Br)s1,4.69
13,Nc1nc(Nc2cccc(F)c2)nc2ccccc12,4.64
14,Clc1ccc(/C=C/c2ncc[nH]2)c(Cl)c1,4.42
15,CCn1cc(C(=O)O)c(=O)c2cc(F)c(N3CCN(C)CC3)cc21,6.37
16,Cc1ccc(OCC(O)Cn2c(=N)n(CCN3CCCCC3)c3ccccc32)cc1 (configuration not stated),3.95
17,CCC(C)N1CCC2(CC1)N=c1c(c3c4c5c(C)c(O)c3c(O)c1=NC(=O)C(C)=CC=C[C@H](C)[C@H](O)[C@@H](C)[C@@H](O)[C@@H](C)[C@H](OC(C)=O)[C@H](C)[C@@H](OC)C=CO[C@@](C)(O5)C4=O)N2 (some centres not stated),5.60
18,Brc1ccc2c(c1)C(OC1CN3CCC1CC3)c1ccccc1CS2 (configuration not stated),4.42
19,O=C(N/N=C\c1cccc([N+](=O)[O-])c1O)C1COc2ccccc2O1 (configuration not stated),4.56
20,Cc1[nH]cnc1C(=O)N/N=C/c1ccc([N+](=O)[O-])s1,4.69
